This note sets out measurements from US10174029B2, “Pyrimidine-2,4-diamine derivatives for treatment of cancer” (THOMAS HELLEDAYS STIFTELSE FOR MEDICINSK FORSKNING, priority 2012, dated 2019).

Where a name gives a salt, the structure may show the parent alone.

One experiment has as its target MTH1 (Homo sapiens, UniProt P36639). Nature of the experiment: MTH1 enzymatic assay and IC50 value determination (malachite green). In kind it is biochemical. The conditions noted are these: MTH1 4.8 nM, dGTP 100 μM, 15 minutes at 22° C.; group: between 2 μM and 10 μM. The essentials:
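Malachite green detection of Pi after coupling dGTP hydrolysis to excess E. coli pyrophosphatase; 4.8 nM MTH1, 100 μM dGTP in Tris-acetate buffer with Mg2+ and DTT, 1% DMSO, 15 min at 22 °C. 12-point 1:3 compound series; absorbance at 630 nm; IC50 by four-parameter nonlinear regression.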
Broadly, the IC50 is the concentration that gives 50% inhibition. Low readings indicate inhibition by little substance, high ones a need for much substance. The compound `Cc1cccc(-c2cc(NCCN3CCCCC3)nc(N)n2)c1C` [Example 112, 6-(2,3-dimethylphenyl)-4-N-[2-(piperidin-1-yl)ethyl]pyrimidine-2,4-diamine] showed an IC50 of 2 to 10 µM. `Cc1ccc(S(=O)(=O)n2cc(-c3cc(NC(C)(C)C)nc(N)n3)c3ccccc32)cc1` [Example 161, 4-N-tert-butyl-6-[1-(4-methylbenzenesulfonyl)-1H-indol-3-yl]pyrimidine-2,4-diamine] returned an IC50 of 2 to 10 µM.

Staying with this experiment, now noted: MTH1 4.8 nM, dGTP 100 μM, 15 minutes at 22° C.; group: less than 200 nM.
`CNc1cc(-c2ccccc2Cl)nc(N)n1` [Example 77, 6-(2-chlorophenyl)-4-N-methylpyrimidine-2,4-diamine] returned an IC50 of less than 0.2 µM. Same read-out and setting: for `Cc1cccc(-c2cc(NCCNc3ccc(C#N)cn3)nc(N)n2)c1C` [Example 397, 6-[(2-{[2-Amino-6-(2,3-dimethylphenyl)pyrimidin-4-yl]amino}ethyl)amino]pyridine-3-carbonitrile] the value was less than 0.2 µM; for `CNc1cc(-c2ccc(CO)cc2)nc(N)n1` [Example 142, {4-[2-amino-6-(methylamino)pyrimidin-4-yl]phenyl}methanol], less than 0.2 µM. The compound `Cc1cccc(-c2cc(NCCCNS(=O)(=O)c3cccc(S(C)(=O)=O)c3)nc(N)n2)c1C` [Example 402, N-(3-{[2-Amino-6-(2,3-dimethylphenyl)pyrimidin-4-yl]amino}propyl)-3-methanesulfonylbenzene-1-sulfonamide] showed a half-inhibitory concentration (IC50) of less than 0.2 µM. With `Cc1cccc(-c2cc(NCCc3ccc(S(N)(=O)=O)cc3)nc(N)n2)c1C` [Example 330, 4-(2-{[2-Amino-6-(2,3-dimethylphenyl)pyrimidin-4-yl]amino}ethyl)benzene-1-sulfonamide], the IC50 was less than 0.2 µM.

For the compound `Cc1cccc(-c2cc(N[C@@H](C)C3CC3)nc(N)n2)c1C` [Example 168, 4-N-[(1S)-1-cyclopropylethyl]-6-(2,3-dimethylphenyl)pyrimidine-2,4-diamine], the half-maximal inhibitory concentration (IC50) was less than 0.2 µM. `CNc1cc(-c2cncc3ccccc23)nc(N)n1` [Example 35, 6-(isoquinolin-4-yl)-4-N-methylpyrimidine-2,4-diamine] yielded an IC50 of less than 0.2 µM. Take `Cc1cccc(-c2cc(NCCCNS(=O)(=O)c3cn(C)c(C)n3)nc(N)n2)c1C` [Example 391, N-(3-{[2-Amino-6-(2,3-dimethylphenyl)pyrimidin-4-yl]amino}propyl)-1,2-dimethyl-1H-imidazole-4-sulfonamide]: the IC50 was less than 0.2 µM. Compound `CNc1cc(-c2ccccc2OC)nc(N)n1` [Example 32, 6-(2-methoxyphenyl)-4-N-methylpyrimidine-2,4-diamine] displayed an IC50 of less than 0.2 µM.

`Cc1ccc2[nH]c(C)c(CCNc3cc(-c4cccc(C)c4C)nc(N)n3)c2c1` [Example 249, 4-N-[2-(2,5-dimethyl-1H-indol-3-yl)ethyl]-6-(2,3-dimethylphenyl)pyrimidine-2,4-diamine] gave a half-maximal inhibitory concentration (IC50) of less than 0.2 µM. The compound `COc1ccc2nc(CCNc3cc(-c4cccc(C)c4C)nc(N)n3)[nH]c2c1` [Example 351, 6-(2,3-Dimethylphenyl)-4-N-[2-(6-methoxy-1H-1,3-benzodiazol-2-yl)ethyl]pyrimidine-2,4-diamine] returned an IC50 of less than 0.2 µM.

Consider `Nc1nc(NC2CCCC2)cc(-c2cccc(Cl)c2Cl)n1` [Example 65, 4-N-cyclopentyl-6-(2,3-dichlorophenyl)pyrimidine-2,4-diamine], for which the IC50 is less than 0.2 µM.

With `Cc1cccc(-c2cc(NCCc3ccncc3)nc(N)n2)c1C` [Example 334, 6-(2,3-Dimethylphenyl)-4-N-[2-(pyridin-4-yl)ethyl]pyrimidine-2,4-diamine], the IC50 is less than 0.2 µM. On the same count and under the same terms, for `Cc1cccc(-c2cc(NCCCNS(=O)(=O)c3c(C)nn(C)c3Cl)nc(N)n2)c1C` [Example 389, N-(3-{[2-Amino-6-(2,3-dimethylphenyl)pyrimidin-4-yl]amino}propyl)-5-chloro-1,3-dimethyl-1H-pyrazole-4-sulfonamide] the value was less than 0.2 µM. For the compound `Cc1cccc(-c2cc(NCCCNS(=O)(=O)c3c(C)noc3C)nc(N)n2)c1C` [Example 359, N-(3-{[2-Amino-6-(2,3-dimethylphenyl)pyrimidin-4-yl]amino}propyl)-3,5-dimethyl-1,2-oxazole-4-sulfonamide], the IC50 was less than 0.2 µM. In the case of `Cc1c(-c2cc(NCCc3ccc(S(N)(=O)=O)cc3)nc(N)n2)ccc(Cl)c1Cl` [Example 428, 4-(2-{[2-amino-6-(3,4-dichloro-2-methylphenyl)pyrimidin-4-yl]amino}ethyl)benzene-1-sulfonamide], the IC50 was less than 0.2 µM. The compound `Cc1cccc(-c2cc(NCC3CCCN(c4ncccn4)C3)nc(N)n2)c1C` (centres unmarked) [Example 350, 6-(2,3-Dimethylphenyl)-4-N-{[1-(pyrimidin-2-yl)piperidin-3-yl]methyl}pyrimidine-2,4-diamine] gave a half-maximal inhibitory concentration (IC50) of less than 0.2 µM. As for `Cc1cccc(-c2cc(NCCCNS(=O)(=O)c3cccc(C#N)c3)nc(N)n2)c1C` [Example 374, N-(3-{[2-Amino-6-(2,3-dimethylphenyl)pyrimidin-4-yl]amino}propyl)-3-cyanobenzene-1-sulfonamide], the IC50 is less than 0.2 µM. Same read-out and setting: for `Nc1nc(NC2CC2)cc(-c2cccc3ncccc23)n1` [Example 232, 4-N-cyclopropyl-6-(quinolin-5-yl)pyrimidine-2,4-diamine] the value was less than 0.2 µM; for `Cc1cccc(-c2cc(NCCCc3ccccc3)nc(N)n2)c1C` [Example 131, 6-(2,3-dimethylphenyl)-4-N-(3-phenylpropyl)pyrimidine-2,4-diamine], less than 0.2 µM; for `CNc1cc(-c2cc(F)ccc2C(F)(F)F)nc(N)n1` [Example 208, 6-[5-fluoro-2-(trifluoromethyl)phenyl]-4-N-methylpyrimidine-2,4-diamine], less than 0.2 µM. Compound `CNc1cc(-c2ccccc2C(F)(F)F)nc(N)n1` [Example 89, 4-N-methyl-6-[2-(trifluoromethyl)phenyl]pyrimidine-2,4-diamine] registered an IC50 of less than 0.2 µM.

Compound `Cc1cccc(-c2cc(NCCNC(=O)OCc3ccccc3)nc(N)n2)c1C` [Example 273, benzyl N-(2-{[2-amino-6-(2,3-dimethylphenyl)pyrimidin-4-yl]amino}ethyl)-carbamate] displayed an IC50 of less than 0.2 µM.

For the compound `Cc1cc(-c2cc(NCCc3ccc(S(N)(=O)=O)cc3)nc(N)n2)c(C)cc1F` [Example 439, 4-(2-{[2-amino-6-(4-fluoro-2,5-dimethylphenyl)pyrimidin-4-yl]amino}ethyl)benzene-1-sulfonamide], the IC50 is less than 0.2 µM. In the case of `CNc1cc(-c2ccc(OCC3CCNCC3)c(COC)c2)nc(N)n1` [Example 257, 6-[3-(methoxymethyl)-4-(piperidin-4-ylmethoxy)phenyl]-4-N-methylpyrimidine-2,4-diamine hydrochloride], the half-inhibitory concentration (IC50) was less than 0.2 µM.

On to `Nc1nc(NCCc2ccc(S(N)(=O)=O)cc2)cc(-c2cccc(Cl)c2Cl)n1` [Example 296, 4-(2-{[2-amino-6-(2,3-dichlorophenyl)pyrimidin-4-yl]amino}ethyl)benzene-1-sulfonamide], for which the concentration for half-maximal inhibition (IC50) was less than 0.2 µM. The compound `CNc1cc(-c2ccc3[nH]ccc3c2)nc(N)n1` [Example 148, 6-(1H-indol-5-yl)-4-N-methylpyrimidine-2,4-diamine] yielded a 50% inhibitory concentration (IC50) of less than 0.2 µM.

On to `CNc1cc(-c2ccc(F)c(C)c2C)nc(N)n1` [Example 260, 6-(4-fluoro-2,3-dimethylphenyl)-4-N-methylpyrimidine-2,4-diamine], for which the half-inhibitory concentration (IC50) was less than 0.2 µM. On to `Cc1cccc(-c2cc(NCCCc3nc4ccccc4[nH]3)nc(N)n2)c1C` [Example 409, 4-N-[3-(1H-1,3-benzodiazol-2-yl)propyl]-6-(2,3-dimethylphenyl)pyrimidine-2,4-diamine], for which the 50% inhibitory concentration (IC50) was less than 0.2 µM.

`Cc1cccc(-c2cc(NCC3(c4ccc(Cl)cc4)CC3)nc(N)n2)c1C` [Example 295, 4-N-{[1-(4-chlorophenyl)cyclopropyl]methyl}-6-(2,3-dimethylphenyl)pyrimidine-2,4-diamine]: the 50% inhibitory concentration (IC50) is less than 0.2 µM. For the compound `CNc1cc(-c2cccc(CO)c2)nc(N)n1` [Example 101, {3-[2-amino-6-(methylamino)pyrimidin-4-yl]phenyl}methanol], the IC50 is less than 0.2 µM. `Cc1ccc(Cl)cc1-c1cc(NC2CC2)nc(N)n1` [Example 219, 6-(5-chloro-2-methylphenyl)-4-N-cyclopropylpyrimidine-2,4-diamine] yielded an IC50 of less than 0.2 µM. `Cc1ncsc1CCNc1cc(-c2cccc(Cl)c2Cl)nc(N)n1` [Example 405, 6-(2,3-dichlorophenyl)-4-N-[2-(4-methyl-1,3-thiazol-5-yl)ethyl]pyrimidine-2,4-diamine] gave a half-maximal inhibitory concentration (IC50) of less than 0.2 µM. With `CNc1cc(-c2cccc(C(=O)Nc3ccc(C)cc3)c2)nc(N)n1` [Example 115, 3-[2-amino-6-(methylamino)pyrimidin-4-yl]-N-(4-methylphenyl)benzamide], the 50% inhibitory concentration (IC50) was less than 0.2 µM. Compound `Cc1ccccc1-c1cc(NCCc2ccc(Cl)cc2)nc(N)n1` [Example 264, 4-N-[2-(4-chlorophenyl)ethyl]-6-(2-methylphenyl)pyrimidine-2,4-diamine] gave an IC50 of less than 0.2 µM. Compound `CNc1cc(-c2cc(OC)ccc2OC)nc(N)n1` [Example 203, 6-(2,5-dimethoxyphenyl)-4-N-methylpyrimidine-2,4-diamine] gave an IC50 of less than 0.2 µM. Consider `CNc1cc(-c2cccc(NC(=O)c3ncccc3O)c2)nc(N)n1` [Example 308, N-{3-[2-amino-6-(methylamino)pyrimidin-4-yl]phenyl}-3-hydroxypyridine-2-carboxamide], for which the half-maximal inhibitory concentration (IC50) is less than 0.2 µM.

In turn, `Nc1nc(NCCc2ccc(Cl)cc2)cc(-c2ccc(Cl)c(Cl)c2Cl)n1` [Example 419, 4-N-[2-(4-Chlorophenyl)ethyl]-6-(2,3,4-trichlorophenyl)pyrimidine-2,4-diamine] had an IC50 of less than 0.2 µM. Turning to `Nc1nc(NC2CC2)cc(-c2cccc3[nH]ccc23)n1` [Example 230, 4-N-cyclopropyl-6-(1H-indol-4-yl)pyrimidine-2,4-diamine], the concentration for half-maximal inhibition (IC50) was less than 0.2 µM.
